# Where “and” joins values, the source holds several entries; their conditions need not be identical. Identical values can stand only once.
# Tested on: CAIX-expressing SK-RC-52 tumors
# Experiment: Biodistribution in mice bearing SK-RC-52 xenografts
# Type: in vivo
# Settings: for Biodistribution Bladder / Biodistribution Blood / Biodistribution Brain / Biodistribution Fat / Biodistribution Heart / Biodistribution Kidney / Biodistribution Liver / Biodistribution Lung / Biodistribution Muscle / Biodistribution Pancreas / Biodistribution Small intestine / Biodistribution Spleen / Biodistribution Stomach / Biodistribution Tumor / Tumor/Kidney ratio / Tumor/Blood ratio / Tumor/Muscle ratio: 740 kBq i.v.
# Experimental: Animal experiments were performed in accordance with protocols approved by the Johns Hopkins Animal Care and Use Committee (ACUC). Six-week-old female NOD/SCID mice were purchased from the Animal Resource Core of the Sidney Kimmel Comprehensive Cancer Center of Johns Hopkins and were subcutaneously injected in the lower left flank or upper right flank with 1×10^6 SK-RC-52 cells in RPMI 1640 GlutaMAX™ media (Life Technologies, Frederick, Md.) supplemented with 1% fetal bovine serum (FBS). Mice were monitored for tumor size and used for SPECT/CT imaging when the size of the tumor reached 100 mm^3.
# Mice bearing SK-RC-52 xenografts at lower left flank were injected intravenously with 740 kBq (20 μCi) of [^111In]XYIMSR-01, or [^177Lu]XYIMSR-01 in 200 μL of PBS. For competitive blocking, same tumor bearing mice were injected with 740 kBq (20 μCi) of [^111In]XYIMSR-01 and 200 nmole of 8 in 200 μL of PBS. At 1 h, 4 h, 8 h, 24 h and 48 h post-injection, mice were sacrificed by cervical dislocation and the blood was immediately collected by cardiac puncture. Heart, lungs, pancreas, spleen, fat, brain, muscle, small intestines, liver, stomach, kidney, urinary bladder, and tumor were collected. Each organ was weighed and the tissue radioactivity was measured with an automated gamma counter (1282 Compugamma CS, Pharmacia/LKBNuclear, Inc., Mt. Waverly, Vic. Australia). The percentage of injected dose per gram of tissue (% ID/g) was calculated by comparison with samples of a standard dilution of the initial dose. All measurements were corrected for radioactive decay.
# Data were expressed as mean±standard deviation (SD). Prism software (GraphPAD, San Diego, Calif.) was used to determine statistical significance. Statistical significance was calculated using a paired t test. P-values <0.0001 were considered significant.
# Mice bearing SK-RC-52 xenografts within the lower left flank were injected intravenously with 740 kBq (20 μCi) of [Al^18F]XYIMSR-04 in 200 μL of PBS. At specific 1 hour time point mentioned in the paper, mice (n=5) were sacrificed by cervical dislocation and the blood was immediately collected by cardiac puncture. Heart, lungs, pancreas, spleen, fat, brain, muscle, small intestines, liver, bone, stomach, kidney, urinary bladder, and tumor were collected. Each organ was weighed and the tissue radioactivity was measured with an automated gamma counter (1282 Compugamma CS, Pharmacia/LKBNuclear, Inc., Mt. Waverly, Vic. Australia). The percentage of injected dose per gram of tissue (% ID/g) was calculated by comparison with samples of a standard dilution of the initial dose. All measurements were corrected for radioactive decay. Data were expressed as mean±standard deviation (SD). Prism software (GraphPAD, San Diego, Calif.) was used to determine statistical significance. Statistical significance was calculated using a paired t test. P-values <0.0001 were considered significant.
# Mice bearing SK-RC-52 xenografts within the upper right flank were injected intravenously with 740 kBq (20 μCi) of [^64Cu]XYIMSR-06 in 200 μL of PBS. For in vivo competition (binding specificity) studies, tumor-bearing mice were injected with 740 kBq (20 μCi) of [^64Cu]XYIMSR-06 and 200 nmole of 8 in 200 μL of PBS concurrently. At specific times after injection (1 h, 4 h, 8 h and 24 h), mice (n=5) were sacrificed by cervical dislocation with blood immediately collected by cardiac puncture. Heart, lungs, pancreas, spleen, fat, brain, muscle, small intestines, liver, stomach, kidney, urinary bladder, and tumor were also collected. Each organ was weighed and the tissue radioactivity was measured with an automated gamma counter (1282 Compugamma CS, Pharmacia/LKBNuclear, Inc., Mt. Waverly, Vic. Australia). The percentage of injected dose per gram of tissue (% ID/g) was calculated by comparison with samples of a standard dilution of the initial dose. All measurements were corrected for radioactive decay. Data were expressed as mean±standard deviation (SD). […]
compound,measurement,setting,value
CC(CCC(=O)N[C@@H](CC(=O)N[C@@H](CC(=O)N[C@@H](CCCCn1cc(CCCC(=O)Nc2nnc(S(N)(=O)=O)s2)nn1)C(=O)NCCOCCOCCNC(=S)Nc1ccc(CC2CN(CC(=O)[O-])CCN(CC(=O)[O-])CCN2CC(=O)O)cc1)C(=O)O)C(=O)O)(c1ccc(O)cc1)c1ccc(O)cc1.[64Cu+2] (some centres unmarked) [[^64Cu]XYIMSR-06],Biodistribution Bladder,1 h post-injection,11.12 % ID/g
same,Biodistribution Blood,1 h post-injection,0.66 % ID/g
same,Biodistribution Brain,1 h post-injection,1.46 % ID/g
same,Biodistribution Fat,1 h post-injection,0.80 % ID/g
same,Biodistribution Heart,1 h post-injection,3.41 % ID/g
same,Biodistribution Kidney,1 h post-injection,33.65 % ID/g
same,Biodistribution Liver,1 h post-injection,3.25 % ID/g
same,Biodistribution Lung,1 h post-injection,25.52 % ID/g
same,Biodistribution Muscle,1 h post-injection,1.28 % ID/g
same,Biodistribution Pancreas,1 h post-injection,2.94 % ID/g
same,Biodistribution Small intestine,1 h post-injection,7.35 % ID/g
same,Biodistribution Spleen,1 h post-injection,0.36 % ID/g
same,Biodistribution Stomach,1 h post-injection,14.80 % ID/g
same,Biodistribution Tumor,1 h post-injection,14.47 % ID/g
same,Tumor/Kidney ratio,1 h post-injection,0.4
same,Biodistribution Bladder,4 h post-injection,17.05 % ID/g
same,Biodistribution Blood,4 h post-injection,0.33 % ID/g
same,Biodistribution Brain,4 h post-injection,0.29 % ID/g
same,Biodistribution Fat,4 h post-injection,0.52 % ID/g
same,Biodistribution Heart,4 h post-injection,1.78 % ID/g
same,Biodistribution Kidney,4 h post-injection,19.99 % ID/g
same,Biodistribution Liver,4 h post-injection,2.18 % ID/g
same,Biodistribution Lung,4 h post-injection,12.03 % ID/g
same,Biodistribution Muscle,4 h post-injection,0.70 % ID/g
same,Biodistribution Pancreas,4 h post-injection,1.36 % ID/g
same,Biodistribution Small intestine,4 h post-injection,4.15 % ID/g
same,Biodistribution Spleen,4 h post-injection,0.24 % ID/g
same,Biodistribution Stomach,4 h post-injection,8.19 % ID/g
same,Biodistribution Tumor,4 h post-injection,19.31 % ID/g
same,Tumor/Blood ratio,4 h post-injection,57.7
same,Tumor/Kidney ratio,4 h post-injection,1.0
same,Tumor/Muscle ratio,4 h post-injection,29.4
same,Biodistribution Bladder,8 h + block (200 nmole of 8),1.45 % ID/g
same,Biodistribution Blood,8 h + block (200 nmole of 8),0.08 % ID/g
same,Biodistribution Brain,8 h + block (200 nmole of 8),0.04 % ID/g
same,Biodistribution Fat,8 h + block (200 nmole of 8),0.05 % ID/g
same,Biodistribution Heart,8 h + block (200 nmole of 8),0.16 % ID/g
same,Biodistribution Kidney,8 h + block (200 nmole of 8),1.82 % ID/g
same,Biodistribution Liver,8 h + block (200 nmole of 8),0.55 % ID/g
same,Biodistribution Lung,8 h + block (200 nmole of 8),0.77 % ID/g
same,Biodistribution Muscle,8 h + block (200 nmole of 8),0.05 % ID/g
same,Biodistribution Pancreas,8 h + block (200 nmole of 8),0.14 % ID/g
same,Biodistribution Small intestine,8 h + block (200 nmole of 8),0.38 % ID/g
same,Biodistribution Spleen,8 h + block (200 nmole of 8),0.14 % ID/g
same,Biodistribution Stomach,8 h + block (200 nmole of 8),0.69 % ID/g
same,Biodistribution Tumor,8 h + block (200 nmole of 8),2.39 % ID/g
same,Tumor/Blood ratio,8 h + block (200 nmole of 8),32.0
same,Tumor/Kidney ratio,8 h + block (200 nmole of 8),1.3
same,Tumor/Muscle ratio,8 h + block (200 nmole of 8),53.0
same,Biodistribution Bladder,8 h post-injection,7.43 % ID/g
same,Biodistribution Blood,8 h post-injection,0.13 % ID/g
same,Biodistribution Brain,8 h post-injection,0.24 % ID/g
same,Biodistribution Fat,8 h post-injection,0.28 % ID/g
same,Biodistribution Heart,8 h post-injection,0.65 % ID/g
same,Biodistribution Kidney,8 h post-injection,8.14 % ID/g
same,Biodistribution Liver,8 h post-injection,0.99 % ID/g
same,Biodistribution Lung,8 h post-injection,4.64 % ID/g
same,Biodistribution Muscle,8 h post-injection,0.21 % ID/g
same,Biodistribution Pancreas,8 h post-injection,0.47 % ID/g
same,Biodistribution Small intestine,8 h post-injection,1.98 % ID/g
same,Biodistribution Spleen,8 h post-injection,0.18 % ID/g
same,Biodistribution Stomach,8 h post-injection,4.02 % ID/g
same,Biodistribution Tumor,8 h post-injection,16.74 % ID/g
same,All other tumor/organ ratios,24 h,> 10.0
same,Biodistribution Bladder,24 h + block (200 nmole of 8),0.45 % ID/g
same,Biodistribution Blood,24 h + block (200 nmole of 8),0.01 % ID/g
same,Biodistribution Brain,24 h + block (200 nmole of 8),0.02 % ID/g
same,Biodistribution Fat,24 h + block (200 nmole of 8),0.01 % ID/g
same,Biodistribution Heart,24 h + block (200 nmole of 8),0.08 % ID/g
same,Biodistribution Kidney,24 h + block (200 nmole of 8),0.48 % ID/g
same,Biodistribution Liver,24 h + block (200 nmole of 8),0.42 % ID/g
same,Biodistribution Lung,24 h + block (200 nmole of 8),0.29 % ID/g
same,Biodistribution Muscle,24 h + block (200 nmole of 8),0.04 % ID/g
same,Biodistribution Pancreas,24 h + block (200 nmole of 8),0.07 % ID/g
same,Biodistribution Small intestine,24 h + block (200 nmole of 8),0.19 % ID/g
same,Biodistribution Spleen,24 h + block (200 nmole of 8),0.11 % ID/g
same,Biodistribution Stomach,24 h + block (200 nmole of 8),0.29 % ID/g
same,Biodistribution Tumor,24 h + block (200 nmole of 8),1.20 % ID/g
same,Tumor/Blood ratio,24 h + block (200 nmole of 8),27.1
same,Tumor/Kidney ratio,24 h + block (200 nmole of 8),2.4
same,Tumor/Muscle ratio,24 h + block (200 nmole of 8),49.0
same,Biodistribution Bladder,24 h post-injection,0.34 % ID/g
same,Biodistribution Blood,24 h post-injection,0.00 % ID/g
same,Biodistribution Brain,24 h post-injection,0.13 % ID/g
same,Biodistribution Fat,24 h post-injection,0.03 % ID/g
same,Biodistribution Heart,24 h post-injection,0.12 % ID/g
same,Biodistribution Kidney,24 h post-injection,0.90 % ID/g
same,Biodistribution Liver,24 h post-injection,0.38 % ID/g
same,Biodistribution Lung,24 h post-injection,1.27 % ID/g
same,Biodistribution Muscle,24 h post-injection,0.02 % ID/g
same,Biodistribution Pancreas,24 h post-injection,0.21 % ID/g
same,Biodistribution Small intestine,24 h post-injection,0.47 % ID/g
same,Biodistribution Spleen,24 h post-injection,0.09 % ID/g
same,Biodistribution Stomach,24 h post-injection,0.65 % ID/g
same,Biodistribution Tumor,24 h post-injection,6.2 % ID/g and 6.23 % ID/g
same,Tumor/Blood ratio,24 h post-injection,142.6
same,Tumor/Muscle ratio,24 h post-injection,261.3
same,Tumor uptake on co-injection of 200 nmole of 8,"mouse, in vivo",blocked tumor uptake
same,Radiotracer uptake within liver,within 24 h,no significant radiotracer uptake within liver
CC(CCC(=O)N[C@@H](CC(=O)N[C@@H](CC(=O)N[C@@H](CCCCn1cc(CCCC(=O)Nc2nnc(S(N)(=O)=O)s2)nn1)C(=O)NCCOCCOCCNC(=O)CN1CCN2CCN(CC1)CC(=O)[O][Al]([18F])[O]C(=O)C2)C(=O)O)C(=O)O)(c1ccc(O)cc1)c1ccc(O)cc1 [[Al^18F]XYIMSR-04],Biodistribution Kidney,1 h post-injection,50.84 ± 2.65 % ID/g
same,Biodistribution Muscle,1 h post-injection,1.74 ± 0.58 % ID/g
same,Biodistribution Small intestine,1 h post-injection,9.59 ± 1.04 % ID/g
same,Tumor/Kidney ratio,1 h post-injection,0.28 and 0.28 ± 0.03
same,Tumor/Muscle ratio,1 h post-injection,9.74 and 9.74 ± 2.9
